# Measurements: ChEMBL document CHEMBL2074049, “Identity of the organic cation transporter OCT3 as the extraneuronal monoamine transporter (uptake2) and evidence for the expression of the transporter in the brain” (J Biol Chem, 1998)
# T1: Solute carrier family 22 member 3 (Rattus norvegicus, UniProt O88446)
# T1 sequence (O88446 whole entry): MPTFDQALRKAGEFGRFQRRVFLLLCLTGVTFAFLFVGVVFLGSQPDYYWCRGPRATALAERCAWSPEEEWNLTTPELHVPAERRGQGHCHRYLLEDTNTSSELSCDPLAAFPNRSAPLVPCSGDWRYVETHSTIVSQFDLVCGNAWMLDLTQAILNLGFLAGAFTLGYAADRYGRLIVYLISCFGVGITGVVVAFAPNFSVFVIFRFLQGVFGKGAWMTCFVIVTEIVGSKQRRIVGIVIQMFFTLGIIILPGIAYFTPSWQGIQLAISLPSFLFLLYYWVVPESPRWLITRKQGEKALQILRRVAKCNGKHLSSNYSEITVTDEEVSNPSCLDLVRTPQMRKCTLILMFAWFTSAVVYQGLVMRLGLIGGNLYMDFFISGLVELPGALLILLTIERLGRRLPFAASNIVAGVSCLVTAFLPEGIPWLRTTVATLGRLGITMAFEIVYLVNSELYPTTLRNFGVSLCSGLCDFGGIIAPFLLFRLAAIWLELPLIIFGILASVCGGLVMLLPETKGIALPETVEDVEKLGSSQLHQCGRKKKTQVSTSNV
# T2: Solute carrier family 22 member 1 (Rattus norvegicus, UniProt Q63089)
# T2 sequence (Q63089 whole entry): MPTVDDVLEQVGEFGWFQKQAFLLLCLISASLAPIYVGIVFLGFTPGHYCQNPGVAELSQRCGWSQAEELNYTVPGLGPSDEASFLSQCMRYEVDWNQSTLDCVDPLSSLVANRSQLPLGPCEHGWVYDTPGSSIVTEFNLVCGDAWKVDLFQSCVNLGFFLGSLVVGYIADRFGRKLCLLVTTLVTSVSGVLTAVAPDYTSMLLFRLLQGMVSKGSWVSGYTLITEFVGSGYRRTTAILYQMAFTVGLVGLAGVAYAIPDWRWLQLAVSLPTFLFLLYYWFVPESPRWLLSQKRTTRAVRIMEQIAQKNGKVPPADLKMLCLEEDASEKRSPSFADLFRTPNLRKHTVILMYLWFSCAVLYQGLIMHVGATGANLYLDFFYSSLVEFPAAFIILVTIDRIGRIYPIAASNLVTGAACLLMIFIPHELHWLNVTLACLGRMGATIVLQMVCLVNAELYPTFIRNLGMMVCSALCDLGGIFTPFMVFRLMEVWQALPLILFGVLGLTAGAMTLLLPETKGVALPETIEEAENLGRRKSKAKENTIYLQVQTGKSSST
# T3: Solute carrier family 22 member 2 (Rattus norvegicus, UniProt Q9R0W2)
# T3 sequence (Q9R0W2 whole entry): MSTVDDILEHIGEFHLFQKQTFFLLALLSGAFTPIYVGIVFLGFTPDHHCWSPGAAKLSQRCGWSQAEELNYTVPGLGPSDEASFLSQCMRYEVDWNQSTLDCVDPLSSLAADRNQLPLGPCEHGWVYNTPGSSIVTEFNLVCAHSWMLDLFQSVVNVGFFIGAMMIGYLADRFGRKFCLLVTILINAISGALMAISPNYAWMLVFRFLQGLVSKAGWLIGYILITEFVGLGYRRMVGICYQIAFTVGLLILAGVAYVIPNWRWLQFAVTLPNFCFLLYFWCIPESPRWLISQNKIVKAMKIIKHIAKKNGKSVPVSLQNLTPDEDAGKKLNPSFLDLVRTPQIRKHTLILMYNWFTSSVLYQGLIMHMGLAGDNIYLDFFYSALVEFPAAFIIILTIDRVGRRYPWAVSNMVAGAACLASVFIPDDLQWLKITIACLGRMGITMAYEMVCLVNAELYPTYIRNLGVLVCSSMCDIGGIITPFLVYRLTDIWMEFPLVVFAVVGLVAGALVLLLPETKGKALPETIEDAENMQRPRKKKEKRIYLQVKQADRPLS
# B1: Solute carrier family 22 member 3 (Rattus norvegicus) (protein)
# chain: MPTFDQALRKAGEFGRFQRRVFLLLCLTGVTFAFLFVGVVFLGSQPDYYWCRGPRATALAERCAWSPEEEWNLTTPELHVPAERRGQGHCHRYLLEDTNTSSELSCDPLAAFPNRSAPLVPCSGDWRYVETHSTIVSQFDLVCGNAWMLDLTQAILNLGFLAGAFTLGYAADRYGRLIVYLISCFGVGITGVVVAFAPNFSVFVIFRFLQGVFGKGAWMTCFVIVTEIVGSKQRRIVGIVIQMFFTLGIIILPGIAYFTPSWQGIQLAISLPSFLFLLYYWVVPESPRWLITRKQGEKALQILRRVAKCNGKHLSSNYSEITVTDEEVSNPSCLDLVRTPQMRKCTLILMFAWFTSAVVYQGLVMRLGLIGGNLYMDFFISGLVELPGALLILLTIERLGRRLPFAASNIVAGVSCLVTAFLPEGIPWLRTTVATLGRLGITMAFEIVYLVNSELYPTTLRNFGVSLCSGLCDFGGIIAPFLLFRLAAIWLELPLIIFGILASVCGGLVMLLPETKGIALPETVEDVEKLGSSQLHQCGRKKKTQVSTSNV
# How the values were obtained:
# [1] = target: T1, Solute carrier family 22 member 3; assay: TP_TRANSPORTER: inhibition of MPP+ uptake (MPP+: 1 uM) in OCT3-expressing HRPE cells; assay type: functional, cell-based
# [2] = target: T2, Solute carrier family 22 member 1; assay: TP_TRANSPORTER: inhibition of TEA uptake (TEA: 20 uM, beta-Estradiol: 100 uM) in OCT1-expressing HRPE cells; assay type: functional, cell-based; conditions: human
# [3] = target: T1, Solute carrier family 22 member 3; assay: TP_TRANSPORTER: inhibition of TEA uptake (TEA: 20 uM) in OCT3-expressing HRPE cells; assay type: functional, cell-based
# [4] = target: T3, Solute carrier family 22 member 2; assay: TP_TRANSPORTER: inhibition of TEA uptake (TEA: 20 uM) in OCT2-expressing HRPE cells; assay type: functional, cell-based
# [5] = target: T2, Solute carrier family 22 member 1; assay: TP_TRANSPORTER: inhibition of TEA uptake (TEA: 20 uM, Testosterone: 100 uM) in OCT1-expressing HRPE cells; assay type: functional, cell-based; conditions: human
# [6] = target: T2, Solute carrier family 22 member 1; assay: TP_TRANSPORTER: inhibition of TEA uptake in OCT1-expressing HRPE cells; assay type: functional, cell-based; conditions: human
# [7] = target: T2, Solute carrier family 22 member 1; assay: TP_TRANSPORTER: inhibition of TEA uptake (TEA: 20 uM, Deoxycorticosterone: 100 uM) in OCT1-expressing HRPE cells; assay type: functional, cell-based; conditions: human
# [8] = target: T1, Solute carrier family 22 member 3; assay: TP_TRANSPORTER: inhibition of Dopamine uptake (Dopamine: 0.15 uM, Cocaine: 100 uM) in OCT3-expressing HRPE cells; assay type: functional, cell-based; conditions: human
# [9] = target: T2, Solute carrier family 22 member 1; assay: TP_TRANSPORTER: inhibition of TEA uptake (TEA: 20 uM, Corticosterone: 100 uM) in OCT1-expressing HRPE cells; assay type: functional, cell-based; conditions: human
# [10] = target: T1, Solute carrier family 22 member 3; assay: (§1) TP_TRANSPORTER: uptake in OCT3-expressing HRPE cells; assay type: functional, cell-based; conditions: human
# [11] = substrate: C[n+]1ccc(-c2ccccc2)cc1; assay: TP_TRANSPORTER: uptake (electrogenesis, -50mV) in Xenopus laevis oocytes; assay type: functional, cell-based, Oocyte
# [12] = substrate: C[n+]1ccc(-c2ccccc2)cc1; assay: as §1; assay type: functional, cell-based
Molecule,IC50 [1],IC50 [3],IC50 [4],other results
CNCCCN1c2ccccc2CCc2ccccc21 [DESIPRAMINE],68 µM,–,–,–
C[C@]12CC[C@@H]3c4ccc(O)cc4CC[C@H]3[C@@H]1CC[C@@H]2O [ESTRADIOL],–,1.1 µM,84.8 µM,Activity [2]: is not an inhibitor [-]
CC(N)Cc1ccccc1 (stereo unspecified) [AMPHETAMINE],42 µM,–,–,–
NCCc1c[nH]c2ccc(O)cc12 [SEROTONIN],97 µM,–,–,–
C[C@]12CC[C@H]3[C@@H](CCC4=CC(=O)CC[C@@]43C)[C@@H]1CC[C@@H]2O [TESTOSTERONE],–,–,–,Activity [5]: is not an inhibitor [-]
CC(=O)[C@H]1CC[C@H]2[C@@H]3CCC4=CC(=O)CC[C@]4(C)[C@H]3CC[C@]12C [PROGESTERONE],–,10.5 µM,1.6 µM,Activity [6]: inhibitor [+]
C[C@]12CC[C@H]3[C@@H](CCC4=CC(=O)CC[C@@]43C)[C@@H]1CC[C@@H]2C(=O)CO [DESOXYCORTICOSTERONE],–,8.4 µM,1.9 µM,Activity [7]: is not an inhibitor [-]
C[C@]12C[C@H](O)[C@H]3[C@@H](CCC4=CC(=O)CC[C@@]43C)[C@@H]1CC[C@@H]2C(=O)CO [CORTICOSTERONE],–,4.9 µM,4.2 µM,Activity [8]: inhibitor [(at a rough estimate) 5 % of control]; Activity [9]: is not an inhibitor [-]
NCCc1ccc(O)c(O)c1 [DOPAMINE],62 µM,384 µM,2300 µM,Activity [10]: substrate [+]
CN[C@@H](C)Cc1ccccc1 [METHAMPHETAMINE],248 µM,–,–,–
NC[C@H](O)c1ccc(O)c(O)c1 [NOREPINEPHRINE],–,434 µM,11000 µM,–
B1,–,–,–,Km [11]: 24 µM; Km [12]: 91 µM
